Like-named read-outs stand apart in the source and are kept apart here.

8 compounds from patent publication US8563599B2, “Methods for synthesizing glycinols, glyceollins I and II, compositions of selected intermediates, and therapeutic uses thereof” (The United States of America, represented by the Secretary …, priority 2008, dated 2013) can be followed below.

One test has as its system MCF12A cells. The experiment in a line: Growth inhibition assay (NCI method, sulforhodamine B), MCF12A. It is filed as cell-based, human. Particulars: for GI50: read-out: GI50 (μM) MCF12A.
A further test relates to MCF7 cells. The experiment in a line: Growth inhibition assay (NCI method, sulforhodamine B), MCF7. The class given is cell-based, human. Particulars: read-out: GI50 (μM) MCF7.
Another test is described as follows: ABTS antioxidant assay. As to conditions: for Trolox Equivalents (μmol/μmol): IC50 compared to IC50 of trolox; for IC50: concentration causing 50% reduction in ABTS absorbance, 2 min, room temperature. On the procedure:
This example illustrates how the biological data pertaining to antioxidant properties of the compounds was obtained.
The antioxidant activity of each test agent was assayed by a colorimetric assay described in the literature that utilizes 2,2′-azinobis-3-ethylbenzothiazoline-6-sulfonic acid (ABTS). ABTS has an intense blue-green color in its free radical form, but is colorless without the free radical. Free radical ABTS was generated by reacting 7 mM ABTS with 2.45 mM potassium persulfate in water for 24-48 hr at room temperature in the dark. Test agents were diluted in 50/50 phosphate buffered saline (PBS)/ethanol to a series of five concentrations, then added to a 96 well half-area plate using 50 μl per well with four wells for each agent concentration. Four control wells containing 50/50 PBS/ethanol without test agents were setup for comparison for each test agent. Trolox, a water-soluble form of vitamin E commonly employed as an antioxidant standard, was also tested in each set of experiments. The free radical ABTS solution was diluted with 50/50 PBS/ethanol to give an absorbance of 1.4 absorbance units at 734 nm, and was then added 50 μl per well to two of the four wells for each condition. The other two wells for each condition received 50 μl of 50/50 PBS/ethanol without ABTS to provide background correction absorbance readings. All dilution and plate loading operations were performed on a Packard Multiprobe II HTS automated liquid handling system. […] Readings for wells with ABTS were background corrected using the corresponding wells containing matching test agent levels without ABTS. The background corrected absorbance of each test agent concentration was then compared to the control wells without agent to determine the percent decrease in color intensity, corresponding to the percent of ABTS free radical reduction. A fit of percent absorbance decrease versus test agent concentration was then used to estimate the concentration causing a 50% reduction in absorbance, called the IC50. The test agent IC50 values were then compared to the IC50 of trolox to calculate the trolox equivalents (TE, moles of trolox needed to give the same level of antioxidant activity as one mole of test agent) for each agent. Smaller IC50 values or larger TE values indicate higher levels of antioxidant activity.

In a further test the test system is NCI/ADR-RES cells. Put plainly: Growth inhibition assay (NCI method, sulforhodamine B), NCI/ADR-RES. It is filed as cell-based, human. Particulars: for GI50: read-out: GI50 (μM) NCI/ADR-RES; for fall-off in activity in NCI/ADR-RES versus MCF7: multidrug resistant cell line over-expressing Pgp.
Setting [1] is: MCF-12A, non-cancerous 'normal' human breast epithelial cells, 48 hr.
Where [2] appears, read: MCF7, human breast cancer cells, 48 hr, 10% serum.
Setting [3] is: Homo sapiens, NCI/ADR-RES, multidrug resistant cell line, 48 hr.
The mark [4] stands for this setting: non-cancerous 'normal' human breast epithelial cells, 48 hr.
The mark [5] stands for this setting: human breast cancer cells, 48 hr, 10% serum.
The mark [6] stands for this setting: multidrug resistant cell line, 48 hr.
Setting [7] is: Homo sapiens, NCI/ADR-RES, 48 h.

A word on the IC50: it is the point on the concentration scale where inhibition reaches its midpoint. A lower IC50 goes with inhibition by little substance. In the case of `O=c1c(-c2ccc(O)cc2)coc2cc(O)cc(O)c12` [Genistein, reference compound], the results for the GI50 in the test on MCF12A cells (setting [1]), in the test with MCF7 cells (setting [2]) and in the test on NCI/ADR-RES cells (setting [3]) were 22 µM, 46 µM and 17 µM, respectively. Moreover, the “Trolox Equivalents (μmol/μmol)” value in the test “ABTS antioxidant assay” is listed as 3.0 ± 0.1 μmol/μmol. The compound also returned an IC50 in “ABTS antioxidant assay” of 3.3 ± 0.1 µM.

Regarding `O=c1c(-c2ccc(O)cc2)coc2cc(O)ccc12` [Daidzein, reference compound], the GI50 worked out at 120 µM in the test with MCF12A cells (setting [1]), 200 µM with MCF7 cells (setting [2]) and 150 µM in the test on NCI/ADR-RES cells (setting [3]). In addition, the “Trolox Equivalents (μmol/μmol)” value in the test “ABTS antioxidant assay” is listed as 3.0 ± 0.1 μmol/μmol. Moreover, half-maximal inhibition in “ABTS antioxidant assay” (IC50) required 3.3 ± 0.2 µM.

For `CC(=O)O[C@H]1C(=O)[C@@]2(C)[C@H]([C@H](OC(=O)c3ccccc3)[C@]3(O)C[C@H](OC(=O)[C@H](O)[C@@H](NC(=O)c4ccccc4)c4ccccc4)C(C)=C1C3(C)C)[C@]1(OC(C)=O)CO[C@@H]1C[C@@H]2O` [paclitaxel, reference compound], in the test with MCF12A cells (cancer versus normal breast cells), the “potency in MCF7 versus MCF12A (differential in activity)” value is “nearly equivalent”. In addition, the “fall-off in activity in NCI/ADR-RES versus MCF7” value in the test on NCI/ADR-RES cells is ~1,000 fold.

Take `CC(C)(C)[Si](C)(C)Oc1ccc2c(c1)OC1c3ccc(O)cc3OCC21O` (single isomer, unassigned; (+)) [4 (+), (+) 9-(t-Butyldimethylsilyloxy)-glycinol]: the GI50 with MCF12A cells (setting [4]) was determined as 15 µM; with MCF7 cells (setting [5]) it was 14 µM; with NCI/ADR-RES cells (setting [6]), 13 µM. The “Trolox Equivalents (μmol/μmol)” value in the test “ABTS antioxidant assay” is reported as 1.9 ± 0.1 μmol/μmol. The midpoint of inhibition in the test “ABTS antioxidant assay”, the IC50, lay at 5 ± 0.4 µM.

Regarding `CC(C)(C)[Si](C)(C)Oc1ccc2c(c1)OC1c3ccc(O)cc3OCC21O` (single isomer, unassigned; (-)) [4 (−), (−) 9-(t-Butyldimethylsilyloxy)-glycinol], the GI50 in the test with MCF12A cells (setting [4]) turned out to be 11 µM; in the test with MCF7 cells (setting [5]), 7.1 µM; in the test with NCI/ADR-RES cells (setting [6]), 8.7 µM. Moreover, the “Trolox Equivalents (μmol/μmol)” value in the test “ABTS antioxidant assay” is on record as 1.9 ± 0.1 μmol/μmol. In the test “ABTS antioxidant assay”, this compound returned an IC50 of 5 ± 0.5 µM.

On to `CC(C)(C)[Si](C)(C)Oc1ccc(C2(O)COc3cc(OCc4ccccc4)ccc3C2O)c(OCc2ccccc2)c1` (racemic) [2 (+/−), (+) 4′-(t-Butyldimethylsilyloxy)-2′,7-dibenzyloxy-isoflavan-3,4-diol], for which the GI50 in the test on MCF12A cells (Homo sapiens, MCF-12A, 48 h) came to 20 µM; in the test with MCF7 cells (Homo sapiens, MCF7, 48 h), 10 µM; in the test with NCI/ADR-RES cells (setting [7]) it was 120 µM. Besides, in the test “ABTS antioxidant assay” (ABTS assay, summary of Table 1), the “antioxidant activity relative to the standards daidzein and genistein” value is on record as “weak activity”. Further, in the test “ABTS antioxidant assay”, the “Trolox Equivalents (μmol/μmol)” value was found to be 0.008 ± 0.006 μmol/μmol. In addition, the IC50 in “ABTS antioxidant assay” was > 100 µM. The “fall-off in activity in NCI/ADR-RES versus MCF7” value in the test with NCI/ADR-RES cells is recorded as “ca. 100 fold”.

In the case of `CC(C)(C)[Si](C)(C)Oc1ccc(C2(O)COc3cc(O)ccc3C2O)c(O)c1` (racemic) [3 (+/−), (+) 4′-(t-Butyldimethylsilyloxy)-2′,7-dihydroxy-isoflavan-3,4-diol], the GI50 with MCF12A cells (Homo sapiens, MCF-12A, 48 h) was 36 µM; with MCF7 cells (Homo sapiens, MCF7, 48 h), 31 µM; in the test on NCI/ADR-RES cells (setting [7]) it was 21 µM. The “Trolox Equivalents (μmol/μmol)” value in the test “ABTS antioxidant assay” is 2.0 ± 0.1 μmol/μmol. Also, 4.6 ± 0.3 µM corresponded to half-maximal inhibition in the test “ABTS antioxidant assay” (IC50).

As to `CC(C)(C)[Si](C)(C)Oc1ccc2c(c1)OC1c3ccc(O)cc3OCC21O` (racemic) [4 (+/−), (+) 9-(t-Butyldimethylsilyloxy)-glycinol], the figures for the GI50 with MCF12A cells (setting [4]), in the test on MCF7 cells (setting [5]) and in the test with NCI/ADR-RES cells (setting [6]) were 4 µM, 4.1 µM and 2.9 µM, respectively. Besides, the “Trolox Equivalents (μmol/μmol)” value in the test “ABTS antioxidant assay” worked out at 2.0 ± 0.1 μmol/μmol. In addition, the IC50 in “ABTS antioxidant assay” turned out to be 4.6 ± 0.2 µM.
